Experimental data from patent US12606529B2, “Sulfur and amide tropolone inhibitors of nucleotidyl transferases and uses therefor” (Saint Louis University, priority 2019, dated 2026).
Values after ≈ are worked out from the molar mass of the structure shown. Read-outs that look alike come from different tables or passages of the source.

Key:
HBV replication = HBV replication inhibition in HepDES19 cells (strand-preferential qPCR); conditions: for EC50: Hepatitis B virus
Procedure: Cells used for toxicity and HBV studies.
HBV replication inhibition studies. HepDES19 cells were seeded in 96-well plates at 4×10^4 cells per well in the absence of tetracycline. Test compounds in a final DMSO concentration of 1% were applied to cells 48 hours after induction of HBV replication and cells were incubated with compounds for 72 hours. Cells were washed in 200 μL of phosphate buffered saline (PBS) and lysed in 150 μL of core lysis buffer (10 mM Tris pH 7.4, 1% Tween20, 150 mM NaCl). Cells were incubated at room temperate on an orbital shaker at 350 rpm for 40 minutes. Cell lysate was transferred to a 96 well polymerase chain reaction (PCR) plate and centrifuged at 3300×g for 5 minutes. The supernatant (50 μL) from the cell lysate was transferred to a 96-well PCR plate and mixed with 20 units of micrococcal nuclease and 100 μM CaCl2. The lysate was incubated for 1 hour at 37° C., and then the nuclease was inactivated at 70° C. for ten minutes. Qiagen protease (0.005 Anson units) was added to the lysate and the mixture was incubated overnight. Qiagen protease was then inactivated at 95° C. for ten minutes.
The crude lysate was used as the template for strand-preferential quantitative polymerase chain reaction (q-PCR) analysis. Quantitative PCR was performed with 40 cycles of 95° C. for 15 s and 60° C. for 1 minute employing the Kappa Probe Force universal PCR master mix.

human RNaseH1 = molecular target: T1, human RNaseH1 (Homo sapiens, UniProt O60930); experiment: Biochemical inhibition of human RNaseH1 activity
T1 sequence (O60930 1-286): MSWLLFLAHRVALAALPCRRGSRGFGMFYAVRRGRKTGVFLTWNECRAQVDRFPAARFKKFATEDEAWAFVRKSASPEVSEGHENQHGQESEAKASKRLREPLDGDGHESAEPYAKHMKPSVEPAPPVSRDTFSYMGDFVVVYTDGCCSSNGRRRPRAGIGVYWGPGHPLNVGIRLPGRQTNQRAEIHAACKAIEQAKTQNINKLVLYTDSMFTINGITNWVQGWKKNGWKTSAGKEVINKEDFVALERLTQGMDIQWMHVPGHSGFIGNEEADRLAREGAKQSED
Procedure: Biochemical inhibition of human RNaseH1 activity. Quantitative inhibition of the human RNaseH1 in the biochemical assays was assessed using a molecular beacon assay as described previously (Edwards et al., 2017). Recombinant human RNaseH 1 (0.3 μg) was incubated with 100 nM RNA:DNA substrate, 50 mM HEPES pH 8.0, 100 mM NaCl, 2 mM Tris(2-carboxyethyl)phosphine hydrochloride (TCEP), 0.05% Tween20, 5 units of RNaseOut, test compounds (0 to 500 μM), and 5% DMSO in a 100 μL reaction volume. The substrate was formed by annealing a complementary RNA oligonucleotide to a hairpin DNA oligonucleotide to hold the hairpin DNA oligonucleotide in an open conformation. The DNA oligonucleotide has a 5′ fluorescein reporter and a 3′ black hole quencher. When the RNA is degraded from the substrate the DNA oligonucleotide closes to form a hairpin structure, decreasing in signal intensity. Reactions were initiated with 5 mM MgCl2 and fluorescence was read using a Synergy HTS multi-mode plate reader at 37° C. Alternatively, the HBV RNaseH version used was MBP-HRHgtCΔ5, a genotype C isolate which lacks the C-terminal 35 amino acids of the HBV RNaseH domain that are predicted to be unstructured. Quantitative inhibition of the human RNaseH1 in biochemical assays was assessed using a FRET-based RNaseH assay under conditions previously reported for an RNaseH molecular beacon assay (Edwards et al., 2017). […] Cleavage of the RNA strand released the fluorescein from quenching, increasing fluorescence. Reactions were monitored for 90 min at 37° C. in a plate reader and initial reaction rates were calculated. Reactions contained escalating concentrations of the compounds.

HSV-1 = experiment: Anti-HSV-1 replication assay (Vero cells, plaque titer); type: cell-based, herpes simplex virus 1; conditions: for log reduction at 0.33 µM / log reduction at 1 µM / log reduction at 5 µM: Human alphaherpesvirus 1, Vero, values separated by / are repeats; for log reduction at 0.33 µM: compound at 0.33 μM, read-out: HSV-1 suppression 0.33 μM; for log reduction at 1 µM: compound at 1 μM; for log reduction at 5 µM: compound at 5 μM
[1] = test system: C. neoformans var. grubii, KN99; experiment: C. neoformans growth inhibition assay (limiting dilution); type: cell-based, Cryptococcus neoformans; conditions: Cryptococcus neoformans
Procedure: Cell types used for C. neoformans studies. All inhibition assays were performed with C. neoformans var. grubii, KN99 (serotype A, MAT). Two clinical strains of C. neoformans var. grubii, serotype A, were provided by Tamara Doering and Andre Spec. […] Cells were diluted to OD650 0.001 in YNB-02 02 (0.67% yeast nitrogen base, 0.2% dextrose, pH 7.0 with 50 mM MOPs)+1% DMSO prior to addition to the plates for the inhibition assays.
C. neoformans growth inhibition assays. Compounds were tested in a limiting dilution assay with a starting optical density (at 650 nm) of 0.001 in YNB-02 plus 1% DMSO. Cells plus compound were incubated in 96-well clear round bottom plates covered with a Breath-easy® membrane without shaking for 48 hours at 35° C. Before measuring cell density, plates were shaken on a microtiter plate shaker at 900 rpm for 3 minutes to resuspend cells and optical density was measured at 650 nm. […] Each assay was done in triplicate and all values are the average of two or more independent assays. The data are presented as the average cell density as a percent of DMSO-only treated cells. MICs are reported as the minimal concentration needed to inhibit 80% of C. neoformans growth relative to vehicle-treated controls.

in vitro = conditions: human, HepDES19 cells
Procedure: Cells used for toxicity and HBV studies. […] Cells were maintained in Dulbecco's modified Eagle's medium (DMEM)/F12 media supplemented with 10% fetal bovine serum (FBS) and 1% penicillin/streptomycin (P/S) with 1 μg/mL tetracycline. Synchronized expression of HBV pgRNA was induced by removing tetracycline from the culture medium.
Cytotoxicity Assays. Qualitative assessments of cytotoxicity were done visually by inspecting the cells in the primary screening assays. […] The next day the compounds were added at 0.78 to 100 μM in a final concentration of 1% (v/v) DMSO, and the cells were incubated for 24 hours under conditions identical to those employed for the viral replication inhibition assays. Mitochondrial toxicity was measured by incubating the cells with 0.25 mg/mL thiazolyl blue tetrazolium bromide (MTT, SigmaAldrich Chemical Co.), the cultures were incubated for 60 mM, metabolites were solubilized in acidic isopropanol, and absorbance was read at 570 nm. CC50 values were calculated by non-linear curve fitting using GraphPad Prism using the three-parameter variable-response log(inhibitor)-versus-response algorithm with the bottom value set to zero.

[2] = HepDES19, read-out: HBV EC50, Table 3 sulfur compounds, HBV replication, HepDES19 cells
[3] = Table 3 sulfur compounds, read-out: HSV-1 suppression 1 μM
[4] = Table 3 sulfur compounds, read-out: HSV-1 suppression 5 μM
[5] = 48 h, Table 3 sulfur compounds, 48 h, 35° C., read-out: C. neoformans MIC80
[6] = read-out: MIC80 against C. neoformans
[7] = CC50, Table 3 sulfur compounds, MTT
[8] = Table 2 amides, read-out: HuRH1 IC50
[9] = Table 2 amides, read-out: HSV-1 suppression 1 μM
[10] = Table 2 amides, read-out: HSV-1 suppression 5 μM
[11] = 48 h, Table 2 amides, 48 h, 35° C., tested 0.19 to 50 μM, read-out: C. neoformans MIC80

SMILES | EC50 (HBV replication; [2]) | log reduction at 1 µM (HSV-1; [3]) | log reduction at 5 µM (HSV-1; [4]) | MIC80 [1, 5] | CC50 at 24 h (in vitro; [7]) | also measured
O=c1c(O)cccc(SCc2ccccc2)c1O [compound 702] | 25 µM | 3.23 | 5.79 | 0.56 µM (≈ 0.146 µg/mL) | – | IC50 (human RNaseH1; Table 3 sulfur compounds, read-out: Hu RNaseH IC50): 31.7 µM; log reduction at 0.33 µM (HSV-1; Table 3 sulfur compounds): 0.13; MIC80 [1, 6]: ≤ 1 µM
CCCCSc1cccc(O)c(=O)c1O [compound 693] | 47.3 µM | 0.25 | 5.64 | 0.9 µM (≈ 0.204 µg/mL) | 13.5 µM | MIC80 [1, 6]: ≤ 1 µM
Cc1cc(O)c(=O)c(O)cc1S(=O)(=O)c1ccc(-c2ccccc2)cc1 [compound 337] | 5.73 µM | – | – | 50 µM (≈ 18.4 µg/mL) | 47.4 µM | log reduction at 0.33 µM (HSV-1; Table 3 sulfur compounds): 0.28
CSc1cccc(O)c(=O)c1O [compound 385] | 4.4 µM | – | 2.5 | 24 µM (≈ 4.42 µg/mL) | 100 µM | CC50 at 24 h (in vitro; CC50): 100 µM
CCCCCCS(=O)(=O)c1cccc(O)c(=O)c1O [compound 699] | 6.83 µM | 0.2 | 4.39 | 10 µM (≈ 2.86 µg/mL) | 13.1 µM | –
CCCCS(=O)(=O)c1cccc(O)c(=O)c1O [compound 535] | 2.02 µM | 0.07 | – | 50 µM (≈ 12.9 µg/mL) | 19.2 µM | –
CCCCS(=O)(=O)c1ccc(S(=O)(=O)CCCC)c(O)c(=O)c1O [compound 536] | 50 µM | 0.09 | 0.35 | 50 µM (≈ 18.9 µg/mL) | 100 µM | CC50 at 24 h (in vitro; CC50): 100 µM
Cc1ccc(S(=O)(=O)c2cc(O)c(=O)c(O)cc2C)cc1 [compound 367] | 16.1 µM | 0 | 0.49 | 24 µM (≈ 7.35 µg/mL) | 23 µM | –
CSc1ccc(SC)c(O)c(=O)c1O [compound 386] | 6.73 µM | – | 0.51 | 24 µM (≈ 5.53 µg/mL) | 68.9 µM | –
CC(C)S(=O)(=O)c1cccc(O)c(=O)c1O [compound 537] | 0.51 µM | 0.25 | – | 50 µM (≈ 12.2 µg/mL) | 20.6 µM | Therapeutic index (CC50/EC50) for HBV (TI, SI) (HBV replication): 41
CC(C)Sc1cccc(O)c(=O)c1O [compound 695] | 26.8 µM | -0.23 | 2.28 | 1.6 µM (≈ 0.34 µg/mL) | 21.1 µM | –
CC(C)Sc1ccc(SC(C)C)c(O)c(=O)c1O [compound 696] | 12.7 µM | 0.08 | 5.82 | 1.4 µM (≈ 0.401 µg/mL) | 9.3 µM | log reduction at 0.33 µM (HSV-1; Table 3 sulfur compounds): -0.06
CC(C)S(=O)(=O)c1ccc(S(=O)(=O)C(C)C)c(O)c(=O)c1O [compound 538] | 50 µM | 0.74 | 0.21 | 50 µM (≈ 17.5 µg/mL) | 100 µM | CC50 at 24 h (in vitro; CC50): 100 µM
O=c1c(O)cccc(S(=O)(=O)c2ccccc2)c1O [compound 408] | 11.1 µM | – | 0.56 | 50 µM (≈ 13.9 µg/mL) | 20.4 µM | –
CS(=O)(=O)c1cccc(O)c(=O)c1O [compound 387] | 0.41 µM | – | 0.02 | 50 µM (≈ 10.8 µg/mL) | – | EC50 (HBV replication; HepDES19, read-out: EC50 against HBV replication): 0.41 µM
CS(=O)(=O)c1ccc(O)c(=O)c(O)c1 [compound 382] | 0.58 µM | – | – | 50 µM (≈ 10.8 µg/mL) | 79.5 µM | Therapeutic index (CC50/EC50) for HBV (TI, SI) (HBV replication): 136
Cc1cc(O)c(=O)c(O)cc1C(=O)N1CCN(C(=O)c2ccc(Cl)cc2)CC1 [compound 875] | – | – | – | – | – | IC50 (human RNaseH1; [8]): 17.2 ± 11 µM; log reduction at 1 µM (HSV-1; [9]): 0.0449; log reduction at 5 µM (HSV-1; [10]): 1.32; MIC80 [1, 11]: 7 µM (≈ 2.82 µg/mL); CC50 at 24 h (in vitro; CC50 (μM), Table 2 amides, MTT): 4.7 ± 1.8 µM
Cc1cc(O)c(=O)c(O)cc1C(=O)Nc1cccc(OCc2ccccc2)c1 [compound 836] | – | – | – | – | – | IC50 (human RNaseH1; [8]): 606 ± 482 µM; log reduction at 5 µM (HSV-1; [10]): 5.2; MIC80 [1, 11]: 4.5 µM (≈ 1.7 µg/mL); CC50 at 24 h (in vitro; CC50 (μM), Table 2 amides, MTT): 5.4 ± 3.5 µM
CCCCCCSc1ccc(SCCCCCC)c(O)c(=O)c1O [compound 841] | 10.7 µM | – | – | – | 7.8 µM | log reduction at 1 µM (HSV-1; read-out: HSV-1 suppression 1 μM, Table 3 sulfur compounds): 4.99; log reduction at 5 µM (HSV-1; read-out: HSV-1 suppression 5 μM, Table 3 sulfur compounds): 4.77; MIC80 ([1]; 48 h, read-out: C. neoformans MIC80, Table 3 sulfur compounds, 48 h, 35° C.): 5 µM (≈ 1.85 µg/mL)
CCCCCCS(=O)(=O)c1ccc(S(=O)(=O)CCCCCC)c(O)c(=O)c1O [compound 700] | 49.8 µM | 0.57 | 2.01 | 50 µM (≈ 21.7 µg/mL) | 46 µM | log reduction at 0.33 µM (HSV-1; Table 3 sulfur compounds): 0.49; Inhibition of HSV-1 (HSV-1; in words): showed inhibition of HSV-1
O=c1c(O)c(S(=O)(=O)Cc2ccccc2)ccc(S(=O)(=O)Cc2ccccc2)c1O [compound 706] | 51.4 µM | – | 0.59 | 49 µM (≈ 21.9 µg/mL) | 73 µM | –
Cc1cc(O)c(=O)c(O)cc1C(=O)NC(CCC(=O)O)C(=O)O (centres unmarked) [compound 868] | – | – | – | – | – | IC50 (human RNaseH1; [8]): 27.7 ± 20.3 µM; log reduction at 1 µM (HSV-1; [9]): -0.15; log reduction at 5 µM (HSV-1; [10]): 0.0414; MIC80 [1, 11]: 50 µM (≈ 16.3 µg/mL); CC50 at 24 h (in vitro; CC50 (μM), Table 2 amides, MTT): 100 µM; CC50 at 24 h (in vitro; CC50): 100 µM
Cc1cc(O)c(=O)c(O)cc1S(=O)(=O)c1ccccc1 [compound 336] | 0.68 µM | – | 1.57 | 50 µM (≈ 14.6 µg/mL) | – | log reduction at 0.33 µM (HSV-1; Table 3 sulfur compounds): 0.13
Cc1ccc(S(=O)(=O)c2cccc(O)c(=O)c2O)cc1 [compound 697] | 49.1 µM | – | 0.01 | 49 µM (≈ 14.3 µg/mL) | 35.3 µM | –
